# Where two headings read alike, the source gives them in different places. Where a SMILES comes first, the peptide text is derived from it. The star is where a group is joined. Deoxycholoyl = C[C@H](CCC(=O)*)[C@H]1CC[C@H]2[C@@H]3CC[C@@H]4C[C@H](O)CC[C@]4(C)[C@H]3C[C@H](O)[C@]12C; Benzoyl(4-Ph) = O=C(c1ccc(-c2ccccc2)cc1)*; Butanoyl(4-Ph) = O=C(CCCc1ccccc1)*; Hydrocinnamoyl = O=C(CCc1ccccc1)*; X4 = O=C(/C=C/c1ccccc1)*; PhAc = O=C(Cc1ccccc1)*; X2 = O=C(C#Cc1ccccc1)*; Bz = O=C(c1ccccc1)*
# Tests used:
# S. aureus ATCC 9144 = assay type: cell-based, Staphylococcus aureus
# Protocol: (§1) Tests of the antibacterial activity were carried out as we just described. Briefly, for assays, the following strains of ESKAPE bacteria were chosen: Acinetobacter baumannii ATCC BAA-1605, Enterococcus faecium ATCC 700221, Klebsiella aerogenes ATCC 13048 (formerly Enterobacter aerogenes), Klebsiella pneumoniae ATCC 700603, and Pseudomonas aeruginosa ATCC 9027. Moreover, the reference strains of Staphylococcus aureus were used: S. aureus ATCC 25923, S. aureus ATCC 6538, S. aureus ATCC 33591 (MRSA), S. aureus ATCC 9144, and S. aureus ATCC 12598. Before experiments, all the strains were stored at −80 °C in Roti®-Store cryo vials (Carl Roth GmbH, Karlsruhe, Germany). To evaluate the activity of the compounds, bacteria were transferred into fresh Mueller–Hinton medium (Becton Dickinson, Warszawa, Poland) and incubated for 24 h at 37 °C. In the next step, bacterial inoculums were seeded on Mueller–Hinton agar plates (BioMaxima SA, Lublin, Poland) and incubated again for 24 h. The MIC values were determined using the broth microdilution method according to the Clinical and Laboratory Standards Institute Protocol. The initial inoculums of bacteria (0.5 × 10^5 colony forming units (CFU)/mL) prepared in Mueller–Hinton broth were exposed to the ranging concentrations of peptides (1–512 µg/mL). The experiments were conducted on 96-well microtiter plates, with a final volume of 100 µL. The inoculum densities were checked spectrophotometrically (Multiskan™ GO Microplate Spectrophotometer, Thermo Scientific, Waltham, MA, USA) at 600 nm. The results were read after incubation for 18 h at 37 °C. The MIC values were the lowest concentration at which a visible growth of microorganisms was inhibited. All experiments were conducted in triplicate. Moreover, positive (growth) and negative (sterility) controls were included.
# S. aureus ATCC 6538 = assay type: cell-based, Staphylococcus aureus
# Protocol: as §1
# S. aureus ATCC 25923 = assay type: cell-based, Staphylococcus aureus
# Protocol: as §1
# S. aureus ATCC 12598 = assay type: cell-based, Staphylococcus aureus
# Protocol: as §1
# [1] = tested on: S. aureus ATCC 33591 (MRSA); assay type: cell-based, Staphylococcus aureus
# Protocol: as §1
# [2] = tested on: Pseudomonas aeruginosa ATCC 9027; assay type: cell-based
# Protocol: as §1
# [3] = tested on: Klebsiella pneumoniae ATCC 700603; assay type: cell-based
# Protocol: as §1
# [4] = tested on: Klebsiella aerogenes ATCC 13048; assay type: cell-based
# Protocol: as §1
# [5] = tested on: Enterococcus faecium ATCC 700221; assay type: cell-based
# Protocol: as §1
# [6] = tested on: human red blood cells (hRBCs); assay: Hemolysis assay; details: 4% (v/v) erythrocytes in PBS, peptides 1–512 µg/mL, 1 h at 37 °C, hemoglobin at 540 nm
# Protocol: To facilitate a comparison of hemolytic activity between the analogs, MHC5 values were determined. MHC5 is the minimum hemolytic concentration of the compounds that caused the 5% hemolysis of hRBCs.
# Briefly, the fresh hRBCs with EDTA as anticoagulant were rinsed three times with PBS through centrifugation at 800× g for 10 min and resuspended in PBS. The serial dilution of peptides (1–512 µg/mL) was prepared in PBS on 96-well plates. Then, the stock RBCs solution was added to the plates to reach a final volume of 100 µL with a 4% concentration of erythrocytes (v/v). The control wells for 0 (RBCs in PBS) and 100% (RBCs in 1% Triton-X 100) hemolysis were also prepared. Then, the plates were incubated for 1 h at 37 °C and centrifuged at 800× g for 10 min at 4 °C (Sorvall ST 16R Centrifuge, Thermo Scientific, Waltham, MA, USA). After centrifugation, the supernatant was carefully transferred to new microtiter plates and the release of hemoglobin was measured at 540 nm (Multiskan™ GO Microplate Spectrophotometer, Thermo Scientific, Waltham, MA, USA). The percentage of hemolysis was calculated based on wells with 100% hemolysis.
# [7] = fresh batch of blood (footnote a)
# [8] = Mueller–Hinton broth, 0.5 × 10^5 CFU/mL, peptides 1–512 µg/mL, 18 h at 37 °C, triplicate
# [9] = MRSA, Mueller–Hinton broth, 0.5 × 10^5 CFU/mL, peptides 1–512 µg/mL, 18 h at 37 °C, triplicate
# [10] = 100% = 1% Triton-X 100, ≥ means less than 5% hemolysis up to 512 µg/mL
SMILES,"MIC S. aureus 9144 (S. aureus ATCC 9144; ATCC 9144, 18 h) [µg/mL]","MIC S. aureus 6538 (S. aureus ATCC 6538; ATCC 6538, 18 h) [µg/mL]","MIC S. aureus 25923 (S. aureus ATCC 25923; ATCC 25923, 18 h) [µg/mL]","MIC S. aureus 12598 (S. aureus ATCC 12598; ATCC 12598, 18 h) [µg/mL]","MIC S. aureus 33591 ([1]; ATCC 33591, 18 h) [µg/mL]",MIC A. baumannii (18 h) [µg/mL],"MIC P. aeruginosa ([2]; ATCC 9027, 18 h) [µg/mL]","MIC K. pneumoniae ([3]; ATCC 700603, 18 h) [µg/mL]","MIC K. aerogenes ([4]; ATCC 13048, 18 h) [µg/mL]","MIC E. faecium ([5]; ATCC 700221, 18 h) [µg/mL]","MHC5 (minimum hemolytic concentration causing 5% hemolysis of hRBCs) [6, 7]",MIC A. baumannii [8] [µg/mL],"MHC5 (minimum hemolytic concentration causing 5% hemolysis of hRBCs) [6, 10] [µg/mL]",other results
"CC[C@H](C)[C@H](NC(=O)[C@H](CCCNC(=N)N)NC(=O)[C@H](CCC(N)=O)NC(=O)[C@@H](NC(=O)[C@@H](NC(=O)[C@H](CCCNC(=N)N)NC(=O)[C@H](CCCCN)NC(=O)/C=C/c1ccccc1)[C@@H](C)CC)C(C)C)C(=O)N[C@@H](CCCCN)C(=O)N[C@@H](CC(=O)O)C(=O)N[C@@H](Cc1ccccc1)C(=O)N[C@@H](CC(C)C)C(=O)N[C@@H](CCCNC(=N)N)C(N)=O [XIX, trans-cinnamic acid-KR12-NH2] (X4-KRIVQRIKDFLR-NH2)",4,16,16,16,8,8,32,16,16,4,128 ^a µg/mL,–,–,–
"CC[C@H](C)[C@H](NC(=O)[C@H](CCCNC(=N)N)NC(=O)[C@H](CCC(N)=O)NC(=O)[C@@H](NC(=O)[C@@H](NC(=O)[C@H](CCCNC(=N)N)NC(=O)[C@H](CCCCN)NC(=O)c1ccccc1)[C@@H](C)CC)C(C)C)C(=O)N[C@@H](CCCCN)C(=O)N[C@@H](CC(=O)O)C(=O)N[C@@H](Cc1ccccc1)C(=O)N[C@@H](CC(C)C)C(=O)N[C@@H](CCCNC(=N)N)C(N)=O [XV, Benzoic acid-KR12-NH2] (Bz-KRIVQRIKDFLR-NH2)",–,–,–,–,–,–,–,–,–,–,–,32,≥512,"MIC S. aureus 9144 (S. aureus ATCC 9144; [8]): 32 µg/mL; MIC S. aureus 6538 (S. aureus ATCC 6538; [8]): 8 µg/mL; MIC S. aureus 25923 (S. aureus ATCC 25923; [8]): 64 µg/mL; MIC S. aureus 12598 (S. aureus ATCC 12598; [8]): 32 µg/mL; MIC S. aureus 33591 [1, 9]: 64 µg/mL; MIC P. aeruginosa [2, 8]: 128 µg/mL; MIC K. pneumoniae [3, 8]: 64 µg/mL; MIC K. aerogenes [4, 8]: 64 µg/mL; MIC E. faecium [5, 8]: 8 µg/mL"
"CC[C@H](C)[C@H](NC(=O)[C@H](CCCNC(=N)N)NC(=O)[C@H](CCC(N)=O)NC(=O)[C@@H](NC(=O)[C@@H](NC(=O)[C@H](CCCNC(=N)N)NC(=O)[C@H](CCCCN)NC(=O)Cc1ccccc1)[C@@H](C)CC)C(C)C)C(=O)N[C@@H](CCCCN)C(=O)N[C@@H](CC(=O)O)C(=O)N[C@@H](Cc1ccccc1)C(=O)N[C@@H](CC(C)C)C(=O)N[C@@H](CCCNC(=N)N)C(N)=O [XVI, Phenylacetic acid-KR12-NH2] (PhAc-KRIVQRIKDFLR-NH2)",–,–,–,–,–,–,–,–,–,–,–,32,256,"MIC S. aureus 9144 (S. aureus ATCC 9144; [8]): 32 µg/mL; MIC S. aureus 6538 (S. aureus ATCC 6538; [8]): 16 µg/mL; MIC S. aureus 25923 (S. aureus ATCC 25923; [8]): 128 µg/mL; MIC S. aureus 12598 (S. aureus ATCC 12598; [8]): 32 µg/mL; MIC S. aureus 33591 [1, 9]: 64 µg/mL; MIC P. aeruginosa [2, 8]: 128 µg/mL; MIC K. pneumoniae [3, 8]: 64 µg/mL; MIC K. aerogenes [4, 8]: 64 µg/mL; MIC E. faecium [5, 8]: 8 µg/mL"
"CC[C@H](C)[C@H](NC(=O)[C@H](CCCNC(=N)N)NC(=O)[C@H](CCC(N)=O)NC(=O)[C@@H](NC(=O)[C@@H](NC(=O)[C@H](CCCNC(=N)N)NC(=O)[C@H](CCCCN)NC(=O)CCc1ccccc1)[C@@H](C)CC)C(C)C)C(=O)N[C@@H](CCCCN)C(=O)N[C@@H](CC(=O)O)C(=O)N[C@@H](Cc1ccccc1)C(=O)N[C@@H](CC(C)C)C(=O)N[C@@H](CCCNC(=N)N)C(N)=O [XVII, 3-Phenylpropionic acid-KR12-NH2] (Hydrocinnamoyl-KRIVQRIKDFLR-NH2)",16,8,16,16,32,32,64,32,64,4,–,–,256,–
"CC[C@H](C)[C@H](NC(=O)[C@H](CCCNC(=N)N)NC(=O)[C@H](CCC(N)=O)NC(=O)[C@@H](NC(=O)[C@@H](NC(=O)[C@H](CCCNC(=N)N)NC(=O)[C@H](CCCCN)NC(=O)CC[C@@H](C)[C@H]1CC[C@H]2[C@@H]3CC[C@@H]4C[C@H](O)CC[C@]4(C)[C@H]3C[C@H](O)[C@]12C)[C@@H](C)CC)C(C)C)C(=O)N[C@@H](CCCCN)C(=O)N[C@@H](CC(=O)O)C(=O)N[C@@H](Cc1ccccc1)C(=O)N[C@@H](CC(C)C)C(=O)N[C@@H](CCCNC(=N)N)C(N)=O [XXII, Deoxycholic acid-KR12-NH2] (Deoxycholoyl-KRIVQRIKDFLR-NH2)",8,4,32,8,256,–,128,64,128,2,8 µg/mL,8,–,–

# Second part, led by results:
"MIC S. aureus 9144 (S. aureus ATCC 9144; ATCC 9144, 18 h) [µg/mL]","MIC S. aureus 6538 (S. aureus ATCC 6538; ATCC 6538, 18 h) [µg/mL]","MIC S. aureus 25923 (S. aureus ATCC 25923; ATCC 25923, 18 h) [µg/mL]","MIC S. aureus 12598 (S. aureus ATCC 12598; ATCC 12598, 18 h) [µg/mL]","MIC S. aureus 33591 ([1]; ATCC 33591, 18 h) [µg/mL]",MIC A. baumannii (18 h) [µg/mL],"MIC P. aeruginosa ([2]; ATCC 9027, 18 h) [µg/mL]","MIC K. pneumoniae ([3]; ATCC 700603, 18 h) [µg/mL]","MIC K. aerogenes ([4]; ATCC 13048, 18 h) [µg/mL]","MIC E. faecium ([5]; ATCC 700221, 18 h) [µg/mL]",SMILES,"MHC5 (minimum hemolytic concentration causing 5% hemolysis of hRBCs) [6, 7]",MIC A. baumannii [8] [µg/mL],"MHC5 (minimum hemolytic concentration causing 5% hemolysis of hRBCs) [6, 10] [µg/mL]",other results
8,32,32,32,16,4,64,16,32,8,"CC[C@H](C)[C@H](NC(=O)[C@H](CCCNC(=N)N)NC(=O)[C@H](CCC(N)=O)NC(=O)[C@@H](NC(=O)[C@@H](NC(=O)[C@H](CCCNC(=N)N)NC(=O)[C@H](CCCCN)NC(=O)CCCc1ccccc1)[C@@H](C)CC)C(C)C)C(=O)N[C@@H](CCCCN)C(=O)N[C@@H](CC(=O)O)C(=O)N[C@@H](Cc1ccccc1)C(=O)N[C@@H](CC(C)C)C(=O)N[C@@H](CCCNC(=N)N)C(N)=O [XVIII, 4-Phenylbutanoic acid-KR12-NH2] ({Butanoyl(4-Ph)}-KRIVQRIKDFLR-NH2)",128 ^a µg/mL,–,–,–
16,8,128,32,32,32,64,32,16,4,"CC[C@H](C)[C@H](NC(=O)[C@H](CCCNC(=N)N)NC(=O)[C@H](CCC(N)=O)NC(=O)[C@@H](NC(=O)[C@@H](NC(=O)[C@H](CCCNC(=N)N)NC(=O)[C@H](CCCCN)NC(=O)C#Cc1ccccc1)[C@@H](C)CC)C(C)C)C(=O)N[C@@H](CCCCN)C(=O)N[C@@H](CC(=O)O)C(=O)N[C@@H](Cc1ccccc1)C(=O)N[C@@H](CC(C)C)C(=O)N[C@@H](CCCNC(=N)N)C(N)=O [XX, Phenylpropiolic acid-KR12-NH2] (X2-KRIVQRIKDFLR-NH2)",–,–,256,–
4,2,8,4,4,8,16,8,4,2,"CC[C@H](C)[C@H](NC(=O)[C@H](CCCNC(=N)N)NC(=O)[C@H](CCC(N)=O)NC(=O)[C@@H](NC(=O)[C@@H](NC(=O)[C@H](CCCNC(=N)N)NC(=O)[C@H](CCCCN)NC(=O)c1ccc(-c2ccccc2)cc1)[C@@H](C)CC)C(C)C)C(=O)N[C@@H](CCCCN)C(=O)N[C@@H](CC(=O)O)C(=O)N[C@@H](Cc1ccccc1)C(=O)N[C@@H](CC(C)C)C(=O)N[C@@H](CCCNC(=N)N)C(N)=O [XXI, 4-Phenylbenzoic acid-KR12-NH2] ({Benzoyl(4-Ph)}-KRIVQRIKDFLR-NH2)",–,–,32,–
